Data taken from patent US5232926A, “Morphinane-skeletoned hydrazone derivatives” (priority 1992, dated 1993).

Tests used:
Sensitivity to light = assay type: physicochemical; conditions: effect of light
[1] = Tail Flick test (analgetic activity); assay type: in vivo; conditions: read-out: Tail Flick ED50
[2] = Hot plate test (analgetic activity); assay type: in vivo; conditions: sc.

**Q.** For `COc1ccc2c3c1O[C@H]1C(=NNc4ccccc4)C=C[C@@]4(O)[C@@H](C2)N(C)CC[C@]314` [14-OH-codeinone phenylhydrazone], which sensitivity to light (Sensitivity to light) is on record?
**A.** The sensitivity to light was “sensitive to light, it turns to yellow due to the effect of light”.

**Q.** Which results are given for `COc1ccc2c3c1O[C@H]1C(=NNC(N)=O)CC[C@H]4[C@@H](C2)N(C)CC[C@]314` [Dihydrocodeinone semicarbazone, Dihydrocodeinonesemicarbazone]?
**A.** ED50 ([1]; sc.): 0.35 mg/kg; ED50 [2]: 0.38 mg/kg

**Q.** Which ED50 ([1]; sc) does the source give for `CN1CC[C@]23c4c5ccc(O)c4O[C@H]2[C@@H](O)C=C[C@H]3[C@H]1C5` [Morphine, reference compound] here?
**A.** The ED50 was 5 mg/kg.

**Q.** What about the “Hot plate test ED50” value [2] of the same compound?
**A.** The value was 3.6 mg/kg.

**Q.** Which ED50 ([1]; sc.) does the source give for `COc1ccc2c3c1O[C@H]1C(=NNC(N)=O)CC[C@@]4(O)[C@@H](C2)N(C)CC[C@]314` [Oxycodone semicarbazone, 14-OH-dihydrocodeinonesemicarbazone] here?
**A.** The ED50 was 0.45 mg/kg.

**Q.** What about the ED50 [2] of the same compound?
**A.** The ED50 was 0.58 mg/kg.

**Q.** Which results are given for `COc1ccc2c3c1O[C@H]1C(=NNc4ccccc4)CC[C@H]4[C@@H](C2)N(C)CC[C@]314` [Dihydrocodeinone phenylhydrazone]?
**A.** ED50 ([1]; sc.): 2.3 mg/kg; ED50 [2]: 2.4 mg/kg

**Q.** Which ED50 ([1]; sc.) does the source give for `CN1CC[C@]23c4c5ccc(O)c4O[C@H]2C(=NNc2ccc([N+](=O)[O-])cc2[N+](=O)[O-])CC[C@H]3[C@H]1C5` [Dihydromorphinone dinitrophenylhydrazone, Dihydromorphinone-2,4-dinitrophenyl hydrazone] here?
**A.** Its ED50 is 0.18 mg/kg.

**Q.** And the ED50 [2]?
**A.** Its ED50 is 0.27 mg/kg.

**Q.** With `CN1CC[C@]23c4c5ccc(O)c4O[C@H]2C(=NNc2ccc([N+](=O)[O-])cc2[N+](=O)[O-])CC[C@@]3(O)[C@H]1C5` [Oxymorphone dinitrophenylhydrazone, 14-OH-dihydromorphinone-2,4-dinitrophenyl hydrazone] as the compound, how does the ED50 ([1]; sc.) read?
**A.** Its ED50 is 0.27 mg/kg.

**Q.** What about the ED50 [2] of the same compound?
**A.** Its ED50 is 0.37 mg/kg.

**Q.** With `CN1CC[C@]23c4c5ccc(O)c4O[C@H]2C(=NNC(N)=O)CC[C@H]3[C@H]1C5` [Dihydromorphinone semicarbazone] as the compound, how does the ED50 ([1]; sc.) read?
**A.** Its ED50 is 0.13 mg/kg.

**Q.** And the ED50 [2]?
**A.** Its ED50 is 0.085 mg/kg.

**Q.** What does the source list for `COc1ccc2c3c1O[C@H]1C(=NNC(N)=S)CC[C@H]4[C@@H](C2)N(C)CC[C@]314` [Dihydrocodeinone thiosemicarbazone]?
**A.** ED50 ([1]; sc.): 0.6 mg/kg; ED50 [2]: 1.7 mg/kg

**Q.** What does the source list for `COc1ccc2c3c1O[C@H]1C(=NNc4ccccc4)CC[C@@]4(O)[C@@H](C2)N(C)CC[C@]314` [Oxycodone phenylhydrazone, 14-OH-dihydrocodeinone phenylhydrazone]?
**A.** ED50 ([1]; sc.): 1.2 mg/kg; ED50 [2]: 0.8 mg/kg

**Q.** Which ED50 ([1]; sc.) does the source give for `CN1CC[C@]23c4c5ccc(O)c4O[C@H]2C(=NNC(N)=O)CC[C@@]3(O)[C@H]1C5` [Oxymorphone semicarbazone, 14-OH-dihydromorphinone semicarbazone] here?
**A.** Its ED50 is 0.9 mg/kg.

**Q.** And the ED50 [2]?
**A.** The ED50 was 0.9 mg/kg.
